{
  "source": "patent US20130065888A1",
  "about": "“OPHTHALMIC FORMULATIONS AND PROCESSES FOR THEIR PREPARATION” (priority 2011, published 2013)",
  "assay": "Numerical particle size distribution by microscopical image analysis of brinzolamide suspensions made by different homogenization techniques (Example 1)",
  "assay_type": "physicochemical",
  "conditions": "suspension in 0.05% Polysorbate 80, prior to treatment",
  "method": "Preferably, particle size analyses and particle size distributions of the suspension are obtained by microscopy using a particle size analyser (preferably by following US Pharmacopeia 29 <776>—Optical Microscopy).\nIn Examples 1.1, 1.2 and 1.3, brinzolamide ophthalmic suspensions were prepared by using three different homogenization techniques (high pressure homogenization in accordance with the present invention, high shear homogenization and ball milling) in order to test the effectiveness these techniques on de-agglomeration of brinzolamide particles and coating of the particles with wetting agent. Three different wetting agents were used (Polysorbate 80, Poloxamer 407 and Tyloxapol). Particle size analyses were conducted by microscopy.\nPortions of the suspension were treated separately by the following three methods (i)-(iii): • (i) high pressure homogenization (5000 psi/5 cycles using Microfluidizer® high pressure homogenizer) • (ii) high shear homogenization (8000 rpm/120 minutes (Ultra-Turrax high shear mixer) • (iii) ball milling (8.5 hours at 22-24 rpm (tumble blender; Zirconox beads: 0.7-1.2 mm)",
  "data": [
    {"smiles": "CCN[C@H]1CN(CCCOC)S(=O)(=O)c2sc(S(N)(=O)=O)cc21", "note": "[brinzolamide]", "values": [
      {"measurement": "particle size distribution of the individual brinzolamide particles, d90", "value": "≤ 3.0", "unit": "μm"},
      {"measurement": "particle size of agglomerates of brinzolamide", "value": "greater than 10 μm"}
    ]}
  ]
}
